Measurements taken from patent US12215140B2, “Method of stabilizing protein contained in specimen and solution for stabilizing protein contained in specimen” (EIKEN KAGAKU KABUSHIKI KAISHA, priority 2018, dated 2025).

System: hemoglobin-haptoglobin complex
Assay: Stability of hemoglobin (as hemoglobin-haptoglobin complex) in samples preserved at 37° C. in preservation solution containing 1 unit/L haptoglobin, Hb measured by latex agglutination method (Examples 1 to 7)
Design: species or system human
Settings: for Hb concentration / Recovery ratio with respect to Hb concentration after 0 days / Recovery ratio with respect to Hb after 0 days: 37° C.; for recovery ratio of hemoglobin in the sample: Feces 1, Feces 2, Feces 3
Method in brief: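 Hemoglobin (~300 µg/L) in 0.5% fecal suspension, or without feces, held at 37 °C for 0–21 days in 40 mmol/L HEPES pH 6.8, 0.1% BSA, 0.1% NaN3, 1 unit/L haptoglobin, with 0–100 mmol/L phenylboronic acid ± sugars. Hb quantified by latex agglutination with anti-human Hb rabbit polyclonal; recovery (%) relative to day 0.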

[1] = Feces 1, sugar 50 mmol/L + phenylboronic acid 15 mmol/L, 0 days
[2] = Feces 1, sugar 50 mmol/L + phenylboronic acid 15 mmol/L, 7 days
[3] = Feces 1, sugar 50 mmol/L + phenylboronic acid 15 mmol/L, 14 days
[4] = Feces 1, sugar 100 mmol/L + phenylboronic acid 15 mmol/L, 0 days
[5] = Feces 1, sugar 100 mmol/L + phenylboronic acid 15 mmol/L, 0 days (Table 7)
[6] = Feces 1, sugar 100 mmol/L + phenylboronic acid 15 mmol/L, 7 days
[7] = Feces 1, sugar 100 mmol/L + phenylboronic acid 15 mmol/L, 7 days (Table 7)
[8] = Feces 1, sugar 100 mmol/L + phenylboronic acid 15 mmol/L, 14 days
[9] = Feces 1, sugar 100 mmol/L + phenylboronic acid 15 mmol/L, 14 days (Table 7)
[10] = Feces 1, sugar 100 mmol/L + phenylboronic acid 50 mmol/L, 0 days
[11] = Feces 1, sugar 100 mmol/L + phenylboronic acid 50 mmol/L, 7 days
[12] = Feces 1, sugar 100 mmol/L + phenylboronic acid 50 mmol/L, 14 days
[13] = Feces 1, sugar 100 mmol/L, no phenylboronic acid, 0 days
[14] = Feces 1, sugar 100 mmol/L, no phenylboronic acid, 7 days
[15] = Feces 1, sugar 100 mmol/L, no phenylboronic acid, 14 days
[16] = Feces 2, sugar 50 mmol/L + phenylboronic acid 15 mmol/L, 0 days
[17] = Feces 2, sugar 50 mmol/L + phenylboronic acid 15 mmol/L, 7 days
[18] = Feces 2, sugar 50 mmol/L + phenylboronic acid 15 mmol/L, 14 days
[19] = Feces 2, sugar 100 mmol/L + phenylboronic acid 15 mmol/L, 0 days
[20] = Feces 2, sugar 100 mmol/L + phenylboronic acid 15 mmol/L, 0 days (Table 7)
[21] = Feces 2, sugar 100 mmol/L + phenylboronic acid 15 mmol/L, 7 days
[22] = Feces 2, sugar 100 mmol/L + phenylboronic acid 15 mmol/L, 7 days (Table 7)
[23] = Feces 2, sugar 100 mmol/L + phenylboronic acid 15 mmol/L, 14 days
[24] = Feces 2, sugar 100 mmol/L + phenylboronic acid 15 mmol/L, 14 days (Table 7)
[25] = Feces 2, sugar 100 mmol/L + phenylboronic acid 50 mmol/L, 0 days
[26] = Feces 2, sugar 100 mmol/L + phenylboronic acid 50 mmol/L, 7 days
[27] = Feces 2, sugar 100 mmol/L + phenylboronic acid 50 mmol/L, 14 days
[28] = Feces 2, sugar 100 mmol/L, no phenylboronic acid, 0 days
[29] = Feces 2, sugar 100 mmol/L, no phenylboronic acid, 7 days
[30] = Feces 2, sugar 100 mmol/L, no phenylboronic acid, 14 days
[31] = Feces 3, sugar 50 mmol/L + phenylboronic acid 15 mmol/L, 0 days
[32] = Feces 3, sugar 50 mmol/L + phenylboronic acid 15 mmol/L, 7 days
[33] = Feces 3, sugar 50 mmol/L + phenylboronic acid 15 mmol/L, 14 days
[34] = Feces 3, sugar 100 mmol/L + phenylboronic acid 15 mmol/L, 0 days
[35] = Feces 3, sugar 100 mmol/L + phenylboronic acid 15 mmol/L, 0 days (Table 7)
[36] = Feces 3, sugar 100 mmol/L + phenylboronic acid 15 mmol/L, 7 days
[37] = Feces 3, sugar 100 mmol/L + phenylboronic acid 15 mmol/L, 7 days (Table 7)
[38] = Feces 3, sugar 100 mmol/L + phenylboronic acid 15 mmol/L, 14 days
[39] = Feces 3, sugar 100 mmol/L + phenylboronic acid 15 mmol/L, 14 days (Table 7)
[40] = Feces 3, sugar 100 mmol/L + phenylboronic acid 50 mmol/L, 0 days
[41] = Feces 3, sugar 100 mmol/L + phenylboronic acid 50 mmol/L, 7 days
[42] = Feces 3, sugar 100 mmol/L + phenylboronic acid 50 mmol/L, 14 days
[43] = Feces 3, sugar 100 mmol/L, no phenylboronic acid, 0 days
[44] = Feces 3, sugar 100 mmol/L, no phenylboronic acid, 7 days
[45] = Feces 3, sugar 100 mmol/L, no phenylboronic acid, 14 days
[46] = No feces, sugar 50 mmol/L + phenylboronic acid 15 mmol/L, 0 days
[47] = No feces, sugar 50 mmol/L + phenylboronic acid 15 mmol/L, 7 days
[48] = No feces, sugar 50 mmol/L + phenylboronic acid 15 mmol/L, 14 days
[49] = No feces, sugar 100 mmol/L + phenylboronic acid 15 mmol/L, 0 days
[50] = No feces, sugar 100 mmol/L + phenylboronic acid 15 mmol/L, 0 days (Table 7)
[51] = No feces, sugar 100 mmol/L + phenylboronic acid 15 mmol/L, 7 days
[52] = No feces, sugar 100 mmol/L + phenylboronic acid 15 mmol/L, 7 days (Table 7)
[53] = No feces, sugar 100 mmol/L + phenylboronic acid 15 mmol/L, 14 days
[54] = No feces, sugar 100 mmol/L + phenylboronic acid 15 mmol/L, 14 days (Table 7)
[55] = No feces, sugar 100 mmol/L + phenylboronic acid 50 mmol/L, 0 days
[56] = No feces, sugar 100 mmol/L + phenylboronic acid 50 mmol/L, 7 days
[57] = No feces, sugar 100 mmol/L + phenylboronic acid 50 mmol/L, 14 days
[58] = No feces, sugar 100 mmol/L, no phenylboronic acid, 0 days
[59] = No feces, sugar 100 mmol/L, no phenylboronic acid, 7 days
[60] = No feces, sugar 100 mmol/L, no phenylboronic acid, 14 days

SMILES: OC[C@@H](O)[C@@H](O)[C@H](O)[C@H](O)CO [Mannitol, mannitol]
- Hb concentration [1]: 288 µg/L
- Recovery ratio with respect to Hb concentration after 0 days [1]: 100%
- Hb concentration [2]: 278 µg/L
- Recovery ratio with respect to Hb concentration after 0 days [2]: 96%
- Hb concentration [3]: 270 µg/L
- Recovery ratio with respect to Hb concentration after 0 days [3]: 94%
- Hb concentration [4]: 281 µg/L
- Recovery ratio with respect to Hb concentration after 0 days [4]: 100%
- Hb concentration [5]: 301 µg/L
- Recovery ratio with respect to Hb after 0 days [5]: 100%
- Hb concentration [6]: 279 µg/L
- Recovery ratio with respect to Hb concentration after 0 days [6]: 99%
- Hb concentration [7]: 288 µg/L
- Recovery ratio with respect to Hb after 0 days [7]: 96%
- Hb concentration [8]: 276 µg/L
- Recovery ratio with respect to Hb concentration after 0 days [8]: 98%
- Hb concentration [9]: 287 µg/L
- Recovery ratio with respect to Hb after 0 days [9]: 95%
- Hb concentration [10]: 270 µg/L
- Recovery ratio with respect to Hb after 0 days [10]: 100%
- Hb concentration [11]: 257 µg/L
- Recovery ratio with respect to Hb after 0 days [11]: 95%
- Hb concentration [12]: 255 µg/L
- Recovery ratio with respect to Hb after 0 days [12]: 95%
- Hb concentration [13]: 276 µg/L
- Recovery ratio with respect to Hb concentration after 0 days [13]: 100%
- Hb concentration [14]: 156 µg/L
- Recovery ratio with respect to Hb concentration after 0 days [14]: 57%
- Hb concentration [15]: 130 µg/L
- Recovery ratio with respect to Hb concentration after 0 days [15]: 47%
- Hb concentration [16]: 296 µg/L
- Recovery ratio with respect to Hb concentration after 0 days [16]: 100%
- Hb concentration [17]: 291 µg/L
- Recovery ratio with respect to Hb concentration after 0 days [17]: 98%
- Hb concentration [18]: 280 µg/L
- Recovery ratio with respect to Hb concentration after 0 days [18]: 95%
- Hb concentration [19]: 290 µg/L
- Recovery ratio with respect to Hb concentration after 0 days [19]: 100%
- Hb concentration [20]: 298 µg/L
- Recovery ratio with respect to Hb after 0 days [20]: 100%
- Hb concentration [21]: 290 µg/L
- Recovery ratio with respect to Hb concentration after 0 days [21]: 100%
- Hb concentration [22]: 284 µg/L
- Recovery ratio with respect to Hb after 0 days [22]: 95%
- Hb concentration [23]: 286 µg/L
- Recovery ratio with respect to Hb concentration after 0 days [23]: 99%
- Hb concentration [24]: 284 µg/L
- Recovery ratio with respect to Hb after 0 days [24]: 95%
- Hb concentration [25]: 268 µg/L
- Recovery ratio with respect to Hb after 0 days [25]: 100%
- Hb concentration [26]: 263 µg/L
- Recovery ratio with respect to Hb after 0 days [26]: 98%
- Hb concentration [27]: 274 µg/L
- Recovery ratio with respect to Hb after 0 days [27]: 102%
- Hb concentration [28]: 284 µg/L
- Recovery ratio with respect to Hb concentration after 0 days [28]: 100%
- Hb concentration [29]: 97 µg/L
- Recovery ratio with respect to Hb concentration after 0 days [29]: 34%
- Hb concentration [30]: 81 µg/L
- Recovery ratio with respect to Hb concentration after 0 days [30]: 28%
- Hb concentration [31]: 293 µg/L
- Recovery ratio with respect to Hb concentration after 0 days [31]: 100%
- Hb concentration [32]: 247 µg/L
- Recovery ratio with respect to Hb concentration after 0 days [32]: 84%
- Hb concentration [33]: 238 µg/L
- Recovery ratio with respect to Hb concentration after 0 days [33]: 81%
- Hb concentration [34]: 286 µg/L
- Recovery ratio with respect to Hb concentration after 0 days [34]: 100%
- Hb concentration [35]: 288 µg/L
- Recovery ratio with respect to Hb after 0 days [35]: 100%
- Hb concentration [36]: 243 µg/L
- Recovery ratio with respect to Hb concentration after 0 days [36]: 85%
- Hb concentration [37]: 231 µg/L
- Recovery ratio with respect to Hb after 0 days [37]: 80%
- Hb concentration [38]: 240 µg/L
- Recovery ratio with respect to Hb concentration after 0 days [38]: 84%
- Hb concentration [39]: 220 µg/L
- Recovery ratio with respect to Hb after 0 days [39]: 76%
- Hb concentration [40]: 254 µg/L
- Recovery ratio with respect to Hb after 0 days [40]: 100%
- Hb concentration [41]: 233 µg/L
- Recovery ratio with respect to Hb after 0 days [41]: 92%
- Hb concentration [42]: 226 µg/L
- Recovery ratio with respect to Hb after 0 days [42]: 89%
- Hb concentration [43]: 282 µg/L
- Recovery ratio with respect to Hb concentration after 0 days [43]: 100%
- Hb concentration [44]: 93 µg/L
- Recovery ratio with respect to Hb concentration after 0 days [44]: 33%
- Hb concentration [45]: 78 µg/L
- Recovery ratio with respect to Hb concentration after 0 days [45]: 28%
- Hb concentration [46]: 270 µg/L
- Recovery ratio with respect to Hb concentration after 0 days [46]: 100%
- Hb concentration [47]: 263 µg/L
- Recovery ratio with respect to Hb concentration after 0 days [47]: 98%
- Hb concentration [48]: 254 µg/L
- Recovery ratio with respect to Hb concentration after 0 days [48]: 94%
- Hb concentration [49]: 269 µg/L
- Recovery ratio with respect to Hb concentration after 0 days [49]: 100%
- Hb concentration [50]: 287 µg/L
- Recovery ratio with respect to Hb after 0 days [50]: 100%
- Hb concentration [51]: 260 µg/L
- Recovery ratio with respect to Hb concentration after 0 days [51]: 97%
- Hb concentration [52]: 272 µg/L
- Recovery ratio with respect to Hb after 0 days [52]: 95%
- Hb concentration [53]: 252 µg/L
- Recovery ratio with respect to Hb concentration after 0 days [53]: 94%
- Hb concentration [54]: 269 µg/L
- Recovery ratio with respect to Hb after 0 days [54]: 94%
- Hb concentration [55]: 254 µg/L
- Recovery ratio with respect to Hb after 0 days [55]: 100%
- Hb concentration [56]: 242 µg/L
- Recovery ratio with respect to Hb after 0 days [56]: 95%
- Hb concentration [57]: 241 µg/L
- Recovery ratio with respect to Hb after 0 days [57]: 95%
- Hb concentration [58]: 261 µg/L
- Recovery ratio with respect to Hb concentration after 0 days [58]: 100%
- Hb concentration [59]: 251 µg/L
- Recovery ratio with respect to Hb concentration after 0 days [59]: 96%
- Hb concentration [60]: 244 µg/L
- Recovery ratio with respect to Hb concentration after 0 days [60]: 93%
- recovery ratio of hemoglobin in the sample (sugar 100 mmol/L further added to other arylboronic acids (3-CPBA, 3-HPBA, 3-APBA) 15 mmol/L): further improved
- recovery ratio of hemoglobin in the sample (sugar 50 or 100 mmol/L further added to phenylboronic acid 15 mmol/L): remarkably improved
